Results as given in the supplement of paper PMC12282887.
± gives the standard deviation of the averaged measurements.

Tests used:
Experiment in all cases: fitness (OD AUC treated / untreated) (fraction); higher = more growth
[1] = system: E. coli BW25113 WT
Experimental: (§1)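 MIC curves of ciprofloxacin or amoxicillin, with or without 55.5 µg/ml caffeine, against E. coli BW25113 wild type, deletion mutants (ΔmicF, ΔompF, Δrob) and complemented strains. Assays ran in LB at 37°C in 96/384-well plates. Fitness is the OD600 AUC over 8 h divided by the no-drug control; 3-4 biological replicates.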

[2] = system: E. coli BW25113 Drob
Experimental: as §1

[3] = system: E. coli BW25113 Drob + rob
Experimental: as §1

CC1(C)S[C@@H]2[C@H](NC(=O)[C@H](N)c3ccc(O)cc3)C(=O)N2[C@H]1C(=O)O [Amoxicillin]
fitness
Conditions	[1]	[2]	[3]
antibiotic concentration 0.72727 µg/ml, caffeine concentration 0 µg/ml	1.02 ± 0.014	1.06 ± 0.015	1.04 ± 0.036
antibiotic concentration 0.72727 µg/ml, caffeine concentration 55.4857 µg/ml	0.986 ± 0.013	0.954 ± 0.021	0.988 ± 0.012
antibiotic concentration 1.45455 µg/ml, caffeine concentration 0 µg/ml	1.03 ± 0.018	1.067 ± 0.0029	1.098 ± 0.0075
antibiotic concentration 1.45455 µg/ml, caffeine concentration 55.4857 µg/ml	0.995 ± 0.082	0.96 ± 0.021	1.013 ± 0.0045
antibiotic concentration 2.18182 µg/ml, caffeine concentration 0 µg/ml	1.01 ± 0.031	0.956 ± 0.024	1.06 ± 0.026
antibiotic concentration 2.18182 µg/ml, caffeine concentration 55.4857 µg/ml	1.02 ± 0.045	0.8209 ± 0.0065	1 ± 0.017
antibiotic concentration 2.90909 µg/ml, caffeine concentration 0 µg/ml	0.791 ± 0.02	0.233 ± 0.018	0.381 ± 0.036
antibiotic concentration 2.90909 µg/ml, caffeine concentration 55.4857 µg/ml	1.07 ± 0.13	0.207 ± 0.016	0.976 ± 0.034
antibiotic concentration 3.63636 µg/ml, caffeine concentration 0 µg/ml	0.246 ± 0.012	0.107 ± 0.015	0.156 ± 0.015
antibiotic concentration 3.63636 µg/ml, caffeine concentration 55.4857 µg/ml	0.971 ± 0.088	0.0967 ± 0.0076	0.653 ± 0.068
antibiotic concentration 4.36364 µg/ml, caffeine concentration 0 µg/ml	0.114 ± 0.0036	0.0398 ± 0.0077	0.0865 ± 0.009
antibiotic concentration 4.36364 µg/ml, caffeine concentration 55.4857 µg/ml	0.637 ± 0.099	0.0126 ± 0.0074	0.219 ± 0.036
antibiotic concentration 5.09091 µg/ml, caffeine concentration 0 µg/ml	0.0723 ± 0.0046	4.88e-05 ± 8.5e-05	0.0167 ± 0.015
antibiotic concentration 5.09091 µg/ml, caffeine concentration 55.4857 µg/ml	0.251 ± 0.04	0.000488 ± 0.00085	0.113 ± 0.022
antibiotic concentration 5.81818 µg/ml, caffeine concentration 0 µg/ml	0.0283 ± 0.0068	0	0
antibiotic concentration 5.81818 µg/ml, caffeine concentration 55.4857 µg/ml	0.133 ± 0.014	0	0.0601 ± 0.0084
antibiotic concentration 6.54545 µg/ml, caffeine concentration 0 µg/ml	0	0	0
antibiotic concentration 6.54545 µg/ml, caffeine concentration 55.4857 µg/ml	0.0838 ± 0.011	0	0.00196 ± 0.0034
antibiotic concentration 7.27273 µg/ml, caffeine concentration 0 µg/ml	0	0	0
antibiotic concentration 7.27273 µg/ml, caffeine concentration 55.4857 µg/ml	0.0273 ± 0.014	0.000488 ± 0.00085	0
antibiotic concentration 8 µg/ml, caffeine concentration 0 µg/ml	0	0	0
antibiotic concentration 8 µg/ml, caffeine concentration 55.4857 µg/ml	0.00395 ± 0.004	0	0.000108 ± 0.00019
